{
  "source": "patent EP0515796A1",
  "about": "“5-Aminoacyl-5,10-dihydro-11H-dibenzo(b,e)(1,4)diazepin-11-ones, processes for their preparation, and their use as medicaments” (ARZNEIMITTELWERK DRESDEN GmbH, priority 1991, dated 1992)",
  "key": {"CaCl2-Arrhythmie": {"tested_on": "CaCl2-Arrhythmie", "assay": "CaCl2-induced arrhythmia in the rat (antifibrillatory effect)", "format": "in vivo, Ratte", "conditions": "for ED50: read-out: CaCl2-Arrhythmie Ratte, ED50"}, "in vivo": {"assay": "in vivo", "format": "in vivo", "conditions": "in vivo; for LD50: intravenous use according to b33, values in brackets = confidence range, read-out: akute Toxizität Ratte, LD50; for selectivity ratio: therapeutic breadth, read-out: Q LD50/ED50"}, "Ratte [1]": {"tested_on": "Ratte", "assay": "in vivo", "format": "in vivo"}, "Ratte [2]": {"tested_on": "Ratte", "conditions": "rat, values in brackets = confidence range, cited from earlier work"}, "[3]": {"conditions": "rat, antifibrillatory effect, values in brackets = confidence range"}, "[4]": {"conditions": "rat LD50 / rat CaCl2-arrhythmia ED50"}},
  "note": "Where a name gives a salt, the structure may show the parent alone. Read-outs that look alike come from different tables or passages of the source. Marks after values point to notes of the source that are not given here.",
  "data": [
    {"compound": "CN1C(=O)c2ccccc2N(C(=O)CCCCCNC2CCCCC2)c2ccc(Cl)cc21", "note": "[Beispiel 8, 8-Chlor-5-(6-cyclohexylamino-hexanoyl)-5,10-dihydro-10-methyl-11H-dibenzo/b,e//1,4/diazepin-11-on.HCl]", "values": [
      {"measurement": "ED50", "setting": "CaCl2-Arrhythmie; [3]", "result": 0.33, "unit": "mg/kg"},
      {"measurement": "LD50", "setting": "in vivo; rat", "result": 35, "unit": "mg/kg"},
      {"measurement": "selectivity ratio", "setting": "in vivo; [4]", "result": 106}
    ]},
    {"compound": "5-(6-Diethylamino-hexanoyl)-5,10-dihydro-10-methyl-11H-dibenzo/b,e//1,4/diazepin-11-on.HCl.0,5 H₂O [Beispiel 4]", "values": [
      {"measurement": "CaCl2-Arrhythmie Ratte, ED50", "setting": "CaCl2-Arrhythmie; [3]", "result": "0,033 (0,011 - 0,10) mg/kg"},
      {"measurement": "akute Toxizität Ratte, LD50", "setting": "Ratte [1]; rat, intravenous use according to b33, values in brackets = confidence range", "result": "78 (73 - 84) mg/kg"},
      {"measurement": "Q LD50/ED50", "setting": "Ratte [1]; therapeutic breadth, rat LD50 / rat CaCl2-arrhythmia ED50", "result": 2364}
    ]},
    {"compound": "CC(C)N(CCC(C(N)=O)(c1ccccc1)c1ccccn1)C(C)C", "note": "(racemic) [Disopyramid]", "values": [
      {"measurement": "akute Toxizität Ratte, LD50", "setting": "Ratte [2]; m (male), literature value from the Palpitin (R) brochure, Gedeon Richter", "result": "m 72 (60 - 80) * mg/kg"},
      {"measurement": "akute Toxizität Ratte, LD50", "setting": "Ratte [2]; w (female), literature value (footnote mark printed only on the m line)", "result": "w 66 (50 - 110) mg/kg"},
      {"measurement": "ED50", "setting": "CaCl2-Arrhythmie; Rattus norvegicus", "result": 1.3, "unit": "mg/kg"},
      {"measurement": "selectivity ratio", "setting": "in vivo; rat, worked out with the cited LD50 of m (male) rats", "result": 55},
      {"measurement": "selectivity ratio", "setting": "in vivo; rat, worked out with the cited LD50 of w (female) rats", "result": 50}
    ]},
    {"compound": "CN1C(=O)c2ccccc2N(C(=O)CCCCCNC2CCCCC2)c2ccccc21", "note": "[Beispiel 7, 5-(6-Cyclohexylamino-hexanoyl)-5,10-dihydro-10-methyl-11H-dibenzo/b,e//1,4/diazepin-11-on.HCl]", "values": [
      {"measurement": "ED50", "setting": "CaCl2-Arrhythmie; [3]", "result": 0.025, "unit": "mg/kg"},
      {"measurement": "LD50", "setting": "in vivo; rat", "result": 32, "unit": "mg/kg"},
      {"measurement": "selectivity ratio", "setting": "in vivo; [4]", "result": 1280}
    ]},
    {"compound": "CCN(CC)CC(=O)Nc1c(C)cccc1C", "note": "[Lidokain]", "values": [
      {"measurement": "ED50", "setting": "CaCl2-Arrhythmie; [3]", "result": 3.1, "unit": "mg/kg"}
    ]},
    {"compound": "C=CC1CN2CCC1CC2C(O)c1ccnc2ccc(OC)cc12", "note": "(stereo not drawn) [Chinidin]", "values": [
      {"measurement": "ED50", "setting": "CaCl2-Arrhythmie; [3]", "result": 2.7, "unit": "mg/kg"},
      {"measurement": "LD50", "setting": "in vivo; rat", "result": 48, "unit": "mg/kg"},
      {"measurement": "selectivity ratio", "setting": "in vivo; rat, rat LD50 / rat CaCl2-arrhythmia ED50", "result": 18}
    ]}
  ]
}
